Results as given in ChEMBL document CHEMBL1201862, “PubChem BioAssay data set” (2004).
The source made the active and inactive calls.

Assays:
[1] = tested on: Vero; assay: viability loss in Vero cells – cell-based, plate reader, cherry-pick samples, cytotoxicity control, dose response (AID 687020); assay type: functional; settings: Chlorocebus sabaeus
[2] = molecular target: T1, Interleukin-8 (Homo sapiens, UniProt P10145); assay: Dose Response confirmation of uHTS small molecule hits for cystic fibrosis induced NFkb Inhibitors in a TNFa-induced IL8 counterscreen.; assay type: functional; settings: read-out: IC50_Mean
T1 sequence (P10145 whole entry): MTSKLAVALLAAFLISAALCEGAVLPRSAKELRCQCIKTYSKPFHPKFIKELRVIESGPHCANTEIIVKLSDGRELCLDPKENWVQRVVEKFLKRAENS

[3] = molecular target: T1, Interleukin-8; assay: Dose Response confirmation of uHTS small molecule hits for cystic fibrosis induced NFkb Inhibitors in a PAF-induced IL8 counterscreen.; assay type: functional; settings: read-out: IC50_Mean
[4] = molecular target: Beta-galactosidase (Escherichia coli, UniProt Q8VNN2); assay: Dose response counterscreen for EBI2 assay utilizing the enzyme, b-galactosidase.; assay type: functional
Sequence of Beta-galactosidase (Q8VNN2 whole entry): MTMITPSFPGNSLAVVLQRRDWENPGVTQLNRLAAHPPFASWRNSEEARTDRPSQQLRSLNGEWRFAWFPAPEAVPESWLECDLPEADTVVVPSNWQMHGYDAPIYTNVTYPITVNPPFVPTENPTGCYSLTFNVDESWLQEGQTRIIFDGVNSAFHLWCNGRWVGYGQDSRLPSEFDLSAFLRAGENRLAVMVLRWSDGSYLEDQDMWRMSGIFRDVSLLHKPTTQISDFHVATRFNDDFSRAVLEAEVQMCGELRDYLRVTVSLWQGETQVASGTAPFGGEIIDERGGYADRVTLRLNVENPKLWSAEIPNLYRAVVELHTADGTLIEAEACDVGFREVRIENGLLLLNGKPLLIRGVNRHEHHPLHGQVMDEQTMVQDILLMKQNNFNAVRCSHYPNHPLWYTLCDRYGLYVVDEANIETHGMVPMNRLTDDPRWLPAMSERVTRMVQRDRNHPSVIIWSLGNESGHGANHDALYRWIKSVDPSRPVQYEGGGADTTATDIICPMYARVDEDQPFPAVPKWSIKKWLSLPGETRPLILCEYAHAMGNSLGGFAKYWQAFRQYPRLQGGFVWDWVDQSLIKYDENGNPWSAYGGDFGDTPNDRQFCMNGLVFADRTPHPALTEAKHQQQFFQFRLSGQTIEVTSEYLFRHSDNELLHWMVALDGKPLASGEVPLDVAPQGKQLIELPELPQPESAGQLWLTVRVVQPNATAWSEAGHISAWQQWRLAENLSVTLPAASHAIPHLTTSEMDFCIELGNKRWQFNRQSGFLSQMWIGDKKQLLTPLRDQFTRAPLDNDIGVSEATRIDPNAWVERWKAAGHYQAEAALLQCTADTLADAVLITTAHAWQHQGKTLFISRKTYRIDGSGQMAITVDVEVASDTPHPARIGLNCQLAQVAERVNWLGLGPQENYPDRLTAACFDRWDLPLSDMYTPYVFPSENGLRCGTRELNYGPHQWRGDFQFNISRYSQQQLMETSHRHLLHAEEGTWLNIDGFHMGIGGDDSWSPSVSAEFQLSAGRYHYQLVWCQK

[5] = molecular target: T2, Heat shock factor protein 1 (Mus musculus, UniProt P38532); assay: decrease of HSF1-responsive luciferase luminescence – cell-based, NIH3T3, dose retest, confirmation (AID 2382); assay type: functional;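 further: NIH3T3 fibroblasts with HSF1-driven luciferase reporter stressed by proteasome inhibitor MG132; luminescence from HSF1-driven luciferase expression after 8 hours of MG132 stress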
T2 sequence (P38532 whole entry): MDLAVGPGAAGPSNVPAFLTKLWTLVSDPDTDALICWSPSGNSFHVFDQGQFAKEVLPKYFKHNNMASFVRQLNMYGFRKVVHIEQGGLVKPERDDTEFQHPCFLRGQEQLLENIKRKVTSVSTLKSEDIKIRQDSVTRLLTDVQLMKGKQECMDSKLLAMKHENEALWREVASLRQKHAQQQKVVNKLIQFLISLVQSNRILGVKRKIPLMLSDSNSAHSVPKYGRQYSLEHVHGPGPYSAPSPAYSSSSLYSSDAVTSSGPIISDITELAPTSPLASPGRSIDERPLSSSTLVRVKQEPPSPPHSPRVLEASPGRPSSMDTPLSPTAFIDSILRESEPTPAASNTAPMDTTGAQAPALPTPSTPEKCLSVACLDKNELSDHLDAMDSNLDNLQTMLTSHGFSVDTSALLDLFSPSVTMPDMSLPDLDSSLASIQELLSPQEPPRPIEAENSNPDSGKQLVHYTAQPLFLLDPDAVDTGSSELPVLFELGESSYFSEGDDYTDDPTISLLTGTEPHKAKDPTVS

[6] = molecular target: Arf-GAP with SH3 domain, ANK repeat and PH domain-containing protein 1 (Homo sapiens, UniProt Q9ULH1); assay type: functional;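 further: biochemical fluorescence polarization dose–response screen measuring inhibition of ASAP1; ASAP1 GAP domain stimulating GTP hydrolysis by truncated human ARF1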
Sequence of Arf-GAP with SH3 domain, ANK repeat and PH domain-containing protein 1 (Q9ULH1 whole entry, the tested form may be a part): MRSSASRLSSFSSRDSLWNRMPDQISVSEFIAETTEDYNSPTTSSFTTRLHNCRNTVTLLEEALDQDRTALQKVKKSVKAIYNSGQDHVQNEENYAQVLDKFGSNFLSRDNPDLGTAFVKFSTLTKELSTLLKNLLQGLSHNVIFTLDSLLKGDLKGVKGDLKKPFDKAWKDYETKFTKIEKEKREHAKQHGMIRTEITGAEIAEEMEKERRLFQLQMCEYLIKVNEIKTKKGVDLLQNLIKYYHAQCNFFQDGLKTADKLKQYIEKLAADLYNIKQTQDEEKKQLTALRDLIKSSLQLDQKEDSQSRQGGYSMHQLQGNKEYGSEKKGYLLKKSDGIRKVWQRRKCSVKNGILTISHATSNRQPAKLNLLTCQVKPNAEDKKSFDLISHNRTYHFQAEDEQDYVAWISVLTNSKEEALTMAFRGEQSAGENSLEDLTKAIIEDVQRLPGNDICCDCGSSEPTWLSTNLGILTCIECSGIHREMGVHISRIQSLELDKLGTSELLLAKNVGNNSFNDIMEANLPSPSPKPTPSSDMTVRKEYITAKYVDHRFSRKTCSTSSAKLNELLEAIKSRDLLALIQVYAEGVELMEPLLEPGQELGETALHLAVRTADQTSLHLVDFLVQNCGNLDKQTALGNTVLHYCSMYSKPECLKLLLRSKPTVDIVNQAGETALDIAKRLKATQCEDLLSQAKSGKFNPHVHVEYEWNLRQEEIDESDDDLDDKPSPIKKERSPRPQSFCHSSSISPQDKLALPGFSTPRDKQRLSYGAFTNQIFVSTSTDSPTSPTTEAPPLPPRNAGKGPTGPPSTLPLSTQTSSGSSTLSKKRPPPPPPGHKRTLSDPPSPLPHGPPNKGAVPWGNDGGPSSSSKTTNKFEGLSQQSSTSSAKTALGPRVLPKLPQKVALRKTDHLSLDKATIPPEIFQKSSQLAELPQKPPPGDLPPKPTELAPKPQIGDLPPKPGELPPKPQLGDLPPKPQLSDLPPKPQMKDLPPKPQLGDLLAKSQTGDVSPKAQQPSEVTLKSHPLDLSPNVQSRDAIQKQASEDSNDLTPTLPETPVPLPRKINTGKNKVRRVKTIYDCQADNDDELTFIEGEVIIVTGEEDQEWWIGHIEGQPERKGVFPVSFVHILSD

[7] = molecular target: T3, Trace amine-associated receptor 1 (Homo sapiens, UniProt Q96RJ0); assay: Counterscreen for agonists of the human trace amine associated receptor 1 (hTAAR1): Fluorescence-based cell-based high throughput dose response assay to identify hTAAR1 agonist that also desensitize TAAR1 receptor response.; assay type: functional
T3 sequence (Q96RJ0 whole entry): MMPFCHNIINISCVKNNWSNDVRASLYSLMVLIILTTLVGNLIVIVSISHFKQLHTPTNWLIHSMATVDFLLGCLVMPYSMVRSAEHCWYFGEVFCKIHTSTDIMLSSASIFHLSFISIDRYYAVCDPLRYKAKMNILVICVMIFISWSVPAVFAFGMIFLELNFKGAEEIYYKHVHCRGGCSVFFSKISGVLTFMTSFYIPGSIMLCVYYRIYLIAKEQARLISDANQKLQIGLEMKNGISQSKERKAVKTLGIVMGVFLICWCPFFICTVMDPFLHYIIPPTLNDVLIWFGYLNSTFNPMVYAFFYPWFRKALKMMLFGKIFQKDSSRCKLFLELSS

[8] = cells; assay type: functional, cell-based
[9] = cells; assay type: functional, cell-based; remark: listed apart in the source
[10] = molecular target: T3, Trace amine-associated receptor 1; assay: Fluorescence-based cell-based high throughput dose response assay to identify agonists of the human trace amine associated receptor 1 (TAAR1).; assay type: functional
[11] = cells; assay type: functional, cell-based; settings: HEK-CNG
[12] = molecular target: Galanin receptor type 3 (Homo sapiens, UniProt O60755); assay: Fluorescence-based cell-based primary high throughput dose response assay to identify antagonists of the Galanin Receptor 3 (GalR3).; assay type: functional
Sequence of Galanin receptor type 3 (O60755 whole entry): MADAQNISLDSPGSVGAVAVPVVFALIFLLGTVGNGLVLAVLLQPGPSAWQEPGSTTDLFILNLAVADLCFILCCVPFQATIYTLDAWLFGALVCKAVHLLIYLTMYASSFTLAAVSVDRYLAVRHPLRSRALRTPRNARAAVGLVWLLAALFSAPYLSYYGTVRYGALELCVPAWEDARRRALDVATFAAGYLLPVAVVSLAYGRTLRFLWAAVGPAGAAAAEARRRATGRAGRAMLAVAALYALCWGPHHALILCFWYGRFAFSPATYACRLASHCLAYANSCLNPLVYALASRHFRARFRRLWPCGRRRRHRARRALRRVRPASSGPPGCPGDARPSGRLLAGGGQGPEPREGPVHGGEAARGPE

[13] = molecular target: T4, Replicative DNA helicase DnaB (Mycobacterium tuberculosis, UniProt P9WMR3); assay: DnaB intein splicing inhibitors, dose response, biochemical, cell-free fluorescence (AID 449749); assay type: functional
T4 sequence (P9WMR3 whole entry): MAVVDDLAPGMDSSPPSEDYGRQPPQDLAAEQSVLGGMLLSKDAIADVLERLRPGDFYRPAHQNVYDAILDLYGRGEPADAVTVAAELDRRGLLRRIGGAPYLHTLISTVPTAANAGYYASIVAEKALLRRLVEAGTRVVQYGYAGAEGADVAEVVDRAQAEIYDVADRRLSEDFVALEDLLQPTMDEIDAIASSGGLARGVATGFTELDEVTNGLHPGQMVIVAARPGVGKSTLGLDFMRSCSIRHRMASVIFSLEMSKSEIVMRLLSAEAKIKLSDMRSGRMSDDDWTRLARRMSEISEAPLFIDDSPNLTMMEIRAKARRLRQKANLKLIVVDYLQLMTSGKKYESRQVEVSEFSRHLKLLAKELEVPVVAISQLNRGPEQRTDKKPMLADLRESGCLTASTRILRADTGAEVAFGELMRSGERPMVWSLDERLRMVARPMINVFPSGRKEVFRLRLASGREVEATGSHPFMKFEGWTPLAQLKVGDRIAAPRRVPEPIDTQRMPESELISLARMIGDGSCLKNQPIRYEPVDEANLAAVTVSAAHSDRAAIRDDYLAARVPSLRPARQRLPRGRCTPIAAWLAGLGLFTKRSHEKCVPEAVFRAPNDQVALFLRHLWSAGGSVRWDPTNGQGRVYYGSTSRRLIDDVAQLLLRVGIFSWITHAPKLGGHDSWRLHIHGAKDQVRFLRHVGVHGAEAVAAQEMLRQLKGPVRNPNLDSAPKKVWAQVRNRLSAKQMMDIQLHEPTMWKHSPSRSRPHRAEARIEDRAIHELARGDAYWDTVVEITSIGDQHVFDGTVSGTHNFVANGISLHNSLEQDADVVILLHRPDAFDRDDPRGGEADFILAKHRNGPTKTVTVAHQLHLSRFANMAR

[14] = molecular target: T5, Protein RecA (Mycobacterium tuberculosis, UniProt P9WHJ3); assay: Fluorescence Cell-Free Homogeneous Dose Retest to Identify Inhibitors of RecA-Intein Splicing Activity. [Related pubchem assays (depositor defined):AID2097, AID2223, AID489010, AID492950]; assay type: functional
T5 sequence (P9WHJ3 whole entry): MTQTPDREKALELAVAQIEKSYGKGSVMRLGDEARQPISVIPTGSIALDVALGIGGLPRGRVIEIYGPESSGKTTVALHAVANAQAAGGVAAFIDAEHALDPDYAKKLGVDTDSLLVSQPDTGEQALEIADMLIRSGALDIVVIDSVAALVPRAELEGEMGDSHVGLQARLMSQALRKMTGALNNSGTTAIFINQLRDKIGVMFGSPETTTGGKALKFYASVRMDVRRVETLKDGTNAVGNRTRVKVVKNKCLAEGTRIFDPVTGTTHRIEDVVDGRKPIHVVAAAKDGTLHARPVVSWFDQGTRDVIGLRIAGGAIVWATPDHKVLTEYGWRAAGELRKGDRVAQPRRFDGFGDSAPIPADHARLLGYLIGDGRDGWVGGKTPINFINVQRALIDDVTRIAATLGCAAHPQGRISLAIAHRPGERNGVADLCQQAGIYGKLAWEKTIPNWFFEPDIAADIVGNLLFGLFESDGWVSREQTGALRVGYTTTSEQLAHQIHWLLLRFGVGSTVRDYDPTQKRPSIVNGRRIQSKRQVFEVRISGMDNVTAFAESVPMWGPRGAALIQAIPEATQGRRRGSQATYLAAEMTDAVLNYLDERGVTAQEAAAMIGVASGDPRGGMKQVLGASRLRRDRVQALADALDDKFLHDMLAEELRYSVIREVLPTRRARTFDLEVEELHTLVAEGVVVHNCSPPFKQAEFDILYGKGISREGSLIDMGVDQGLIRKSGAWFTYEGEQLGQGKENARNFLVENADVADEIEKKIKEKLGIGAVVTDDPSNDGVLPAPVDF

With `CCCn1c(NCc2ccc(N(C)C)cc2)nc2ccccc21` the AC50 [1] was 36.6 µM (active).

With `O=C(c1ccccc1)C1OC1C(=O)c1ccccc1` (stereo not given) the IC50 [2] was 6 µM (active) and the IC50 [3] was 2.84 µM (active).

In the case of `CCCCN(Cc1ccco1)C(=O)Cn1ncc2c(=O)oc3ccc(C)cc3c21`, the IC50 [4] is reported as > 80 µM (inactive), the EC50 [5] is reported as > 195 µM (not active) and the IC50 [6] is reported as 53.2 µM (inactive).

With `O=C(NCCc1ccccc1)C1CCCN(S(=O)(=O)c2cccc3nsnc23)C1` (stereo not given) the IC50 [7] was 2.2 µM (active), the IC50 [8] was > 29.9 µM (inactive) and the EC50 [9] was > 29.9 µM (inactive). The EC50 [10] was 0.669 µM (active).

With `Cc1cc(C)c(C#N)c(SCc2n[nH]c3c2C(c2ccc(F)cc2)C(C#N)=C(N)O3)n1` (stereo not given) the EC50 [11] was > 29.9 µM (inactive), the IC50 [12] was > 29.9 µM (inactive) and the AC50 [13] was 6.74 µM (active). The EC50 [14] was 11.2 µM (active).

With `CCCCc1cc(=O)oc2cc(C)cc(OCC(=O)N3CCC(C(N)=O)CC3)c12` the AC50 [1] was 37.5 µM (active).
